Experiments:
Assay type in all cases: biochemical
[1] = target: T1, SHP1 (Homo sapiens, UniProt P29350); assay: Tyrosine phosphatase selectivity (pNPP substrate), SHP1; details: for IC50: SHP1, pNPP substrate; for IC50PTP/IC50SHP2 SHP1: selectivity ratio SHP1 over SHP2
T1 construct: made in house; host or cells: E. coli
Experimental: (§1) This experiment evaluated the selectivity of the disclosed compounds against tyrosine phosphatases, including SHP1, HePTP, Laforin, LMWPTP, LYP, PTP1B, PRL2, SSU72, VHR, FAP1, STEP, CDC14A, CD45, MEG2, and PP5, all expressed and purified from E. coli.
(§2) Phosphatase activity was measured using p-nitrophenyl phosphate (pNPP) (Fisher Scientific) as the substrate in 50 mM 3,3-dimethylglutaric acid buffer (pH 7.0, containing 1 mM EDTA), with ionic strength adjusted to 0.15 M with NaCl. […] After 10-60 minutes, the reaction was quenched by adding 20 µL of 5 N NaOH. Wells without enzyme were used as controls for correction. The amount of the product, p-nitrophenol, was determined by measuring the absorbance at 405 nm using a Spectra MAX340 microplate spectrophotometer (Molecular Devices), with a molar extinction coefficient of 18000 M^-1cm^-1.
(§3) Data were analyzed using GraphPad Prism software. Dose-response curves were obtained by fitting data using the nonlinear S-curve regression Dose-response-inhibition equation, and IC50 values were calculated.

[2] = target: T2, LYP (Homo sapiens, UniProt Q9Y2R2); assay: Tyrosine phosphatase selectivity (pNPP substrate), LYP; details: for IC50: LYP, pNPP substrate; for IC50PTP/IC50SHP2 LYP: selectivity ratio LYP over SHP2
T2 construct: made in house; host or cells: E. coli
T2 sequence (Q9Y2R2 1-807): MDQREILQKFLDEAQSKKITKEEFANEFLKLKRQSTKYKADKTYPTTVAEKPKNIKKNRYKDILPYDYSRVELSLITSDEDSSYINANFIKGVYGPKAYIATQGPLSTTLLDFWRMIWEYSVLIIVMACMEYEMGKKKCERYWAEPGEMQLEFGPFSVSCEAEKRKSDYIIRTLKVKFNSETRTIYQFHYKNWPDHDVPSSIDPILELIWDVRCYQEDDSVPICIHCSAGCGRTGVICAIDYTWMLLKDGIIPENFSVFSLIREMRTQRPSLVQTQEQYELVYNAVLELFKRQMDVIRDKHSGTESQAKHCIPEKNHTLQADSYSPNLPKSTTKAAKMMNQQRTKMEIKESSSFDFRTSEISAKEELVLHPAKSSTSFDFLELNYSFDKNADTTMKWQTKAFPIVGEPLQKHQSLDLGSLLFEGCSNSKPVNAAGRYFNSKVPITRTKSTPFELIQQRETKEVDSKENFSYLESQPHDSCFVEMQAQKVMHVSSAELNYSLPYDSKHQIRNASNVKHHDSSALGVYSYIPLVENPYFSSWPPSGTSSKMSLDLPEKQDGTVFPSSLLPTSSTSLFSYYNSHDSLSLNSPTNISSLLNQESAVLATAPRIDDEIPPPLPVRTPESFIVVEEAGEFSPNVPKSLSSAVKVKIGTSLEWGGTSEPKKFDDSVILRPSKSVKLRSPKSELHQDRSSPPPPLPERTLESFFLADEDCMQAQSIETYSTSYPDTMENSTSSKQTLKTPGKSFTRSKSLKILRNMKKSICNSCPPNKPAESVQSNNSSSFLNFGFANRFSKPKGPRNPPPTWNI
Experimental: as §1, §2, §3

[3] = target: T3, PRL2 (Homo sapiens, UniProt Q12974); assay: Tyrosine phosphatase selectivity (pNPP substrate), PRL2; details: for IC50: PRL2, pNPP substrate; for IC50PTP/IC50SHP2 PRL2: selectivity ratio PRL2 over SHP2
T3 construct: made in house; host or cells: E. coli
T3 sequence (Q12974 1-167): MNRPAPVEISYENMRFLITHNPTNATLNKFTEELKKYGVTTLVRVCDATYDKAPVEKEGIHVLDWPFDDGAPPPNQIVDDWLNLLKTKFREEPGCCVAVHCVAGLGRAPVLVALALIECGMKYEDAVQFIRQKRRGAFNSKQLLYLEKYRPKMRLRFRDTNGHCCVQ
Experimental: as §1, §2, §3

T1 sequence (P29350 whole entry): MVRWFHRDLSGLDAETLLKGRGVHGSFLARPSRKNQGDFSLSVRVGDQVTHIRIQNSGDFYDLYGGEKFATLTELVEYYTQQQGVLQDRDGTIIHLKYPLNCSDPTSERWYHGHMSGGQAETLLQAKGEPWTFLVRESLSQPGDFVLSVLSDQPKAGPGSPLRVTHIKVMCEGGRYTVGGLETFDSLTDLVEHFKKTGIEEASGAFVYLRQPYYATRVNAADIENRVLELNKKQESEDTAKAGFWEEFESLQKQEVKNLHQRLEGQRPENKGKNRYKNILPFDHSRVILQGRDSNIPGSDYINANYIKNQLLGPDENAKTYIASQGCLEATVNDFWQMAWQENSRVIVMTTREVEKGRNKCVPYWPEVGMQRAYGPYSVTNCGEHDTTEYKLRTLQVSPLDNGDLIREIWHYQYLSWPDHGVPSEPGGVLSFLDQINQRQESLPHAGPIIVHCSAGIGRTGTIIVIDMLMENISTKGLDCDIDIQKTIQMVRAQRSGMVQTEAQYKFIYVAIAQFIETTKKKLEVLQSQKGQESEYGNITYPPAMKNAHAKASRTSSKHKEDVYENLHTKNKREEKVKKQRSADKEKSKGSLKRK

Compound	IC50 [1]	IC50PTP/IC50SHP2 SHP1 [1]	IC50 [2]	IC50PTP/IC50SHP2 LYP [2]	IC50 [3]	IC50PTP/IC50SHP2 PRL2 [3]
O=C(Nc1ccc(-c2cc3cc(F)c(-c4nnn[nH]4)cc3n2C2CCC2)cc1)C(=O)Nc1ccc(N2CCC3(CCOC3)CC2)cc1 [Example 67]	110 nM	3.2	76 nM	2.2	> 100000 nM	2941
O=C(Nc1ccc(-c2oc3cc(F)c(-c4nnn[nH]4)cc3c2C2CCC2)cc1)C(=O)Nc1ccc(N2CCC3(CCOC3)CC2)cc1 [Example 125]	170 nM	3.3	2500 nM	49.0	> 100000 nM	1960.8
O=C(Nc1ccc(-c2cc3cc(F)c(-c4nnn[nH]4)cc3n2C2CCC2)cc1)C(=O)Nc1ccc(N2CCOCC2)cc1 [Example 47]	120 nM	1.9	189 nM	3.0	> 100000 nM	1587
Cn1cc(-c2ccc(NC(=O)C(=O)Nc3ccc(-c4cc5cc(F)c(-c6nnc(C(F)(F)F)[nH]6)cc5n4C4CCC4)cc3)cc2)cn1 [Example 124]	5620 nM	7.8	> 100000 nM	139.7	> 100000 nM	139.7
O=C(Nc1ccc(-c2ccsc2)cc1)C(=O)Nc1ccc(-c2cc3cc(F)c(-c4nnn[nH]4)nc3n2C2CCC2)cc1 [Example 132]	600 nM	22.2	500 nM	18.5	> 50000 nM	1851.9
O=C(Nc1ccc(-c2ccsc2)cc1)C(=O)Nc1ccc(-c2cc3cnc(-c4nnn[nH]4)nc3n2C2CCC2)cc1 [Example 131]	800 nM	30.8	500 nM	19.2	> 50000 nM	1923.1
Cn1cc(-c2ccc(NC(=O)C(=O)Nc3ccc(-c4cc5cc(F)c(-c6noc(=O)[nH]6)cc5n4C4CCC4)cc3)cc2)cn1 [Example 123]	320 nM	2.3	1070 nM	7.6	> 100000 nM	709.2
O=C(Nc1ccc(-c2cc3cc(F)c(-c4nnn[nH]4)cc3n2C2CCC2)cc1)C(=O)Nc1ccc(N2CC3COCC3C2)cc1 (stereo not shown) [Example 114]	100 nM	1.3	100 nM	1.3	> 100000 nM	1388
Cn1c(-c2cccc(NC(=O)C(=O)Nc3ccc(-c4ccsc4)cc3)c2)c(I)c2cc(C(=O)O)c(O)cc21 [Example 11a-1, reference compound]	800 nM	7.4	1050 nM	9.7	–	–
O=C(Nc1ccc(-c2ccsc2)cc1)C(=O)Nc1ccc(-c2cc3ccc(-c4nnn[nH]4)nc3n2C2CCC2)cc1 [Example 129]	700 nM	11.9	1200 nM	20.3	> 50000 nM	847.5
O=C(Nc1ccc(-c2ccsc2)cc1)C(=O)Nc1ccc(-c2oc3cc(F)c(-c4nnn[nH]4)cc3c2C2CCC2)cc1 [Example 130]	600 nM	24.0	1200 nM	48	> 50000 nM	2000
CC1(n2c(-c3ccc(NC(=O)C(=O)Nc4ccc(N5CCC6(CCOC6)CC5)cc4)cc3)cc3cc(F)c(-c4nnn[nH]4)cc32)CCC1 [Example 68]	383 nM	8.0	1540 nM	32.1	> 25000 nM	520.8
O=C(Nc1ccc(-c2ccsc2)cc1)C(=O)Nc1ccc(-c2cc3cc(F)c(-c4nnn[nH]4)cc3n2C2CCC2)cc1 [Example 4]	600 nM	20.7	500 nM	17.2	> 50000 nM	1724.1
